Reference: patent US20240252496A1, “SELECTIVE HYPOTHALAMUS PERMEABLE HDAC6 INHIBITORS FORTREATMENT OF LEPTIN-RESISTANT OBESITY” (The Children’s Medical Center Corporation, priority 2022, published 2024)

Columns and labels:
[1] = target: LepRb-HDAC6 interaction (Mus musculus (Mouse), UniProt Q9Z2V5); assay: LepRb-flag / HDAC6-myc co-immunoprecipitation in HEK293 cells; format: cell-based; details: 200 nM for 1 h
Protocol: It was hypothesized that HDAC6 might interact with leptin receptor b (LepRb). To test this hypothesis, HEK293 cells were transfected with GFP or HDAC6-myc or LepRb-flag or LepRb-flag and HDAC6-myc expressing plasmids. Subsequently, cells were treated either with vehicle or HDAC6 inhibitor (ACY775) (200 nM for 1 h). Then Flag immunoprecipitation was performed to pull down LepRb and subsequently immunoblot these immune-precipitates with Myc and Flag antibodies.
HEK293 cells were transfected with GFP (as control) or HDAC6 or LepRb or LepRb and HDAC6 together. Subsequently cells were either treated with vehicle or HDAC6 inhibitor (ACY775) (200 nM for 1 h). Flag immunoprecipitation was used to pull down LepRb, followed by Myc and Flag immunoblotting.

[2] = target: HDAC6 (Mus musculus (Mouse), UniProt Q9Z2V5); assay: LepRb acetyl-lysine immunoblotting in HEK293 cells; format: cell-based; details: 200 nM, 0.5-3 h
Chain of HDAC6 (Q9Z2V5 whole entry): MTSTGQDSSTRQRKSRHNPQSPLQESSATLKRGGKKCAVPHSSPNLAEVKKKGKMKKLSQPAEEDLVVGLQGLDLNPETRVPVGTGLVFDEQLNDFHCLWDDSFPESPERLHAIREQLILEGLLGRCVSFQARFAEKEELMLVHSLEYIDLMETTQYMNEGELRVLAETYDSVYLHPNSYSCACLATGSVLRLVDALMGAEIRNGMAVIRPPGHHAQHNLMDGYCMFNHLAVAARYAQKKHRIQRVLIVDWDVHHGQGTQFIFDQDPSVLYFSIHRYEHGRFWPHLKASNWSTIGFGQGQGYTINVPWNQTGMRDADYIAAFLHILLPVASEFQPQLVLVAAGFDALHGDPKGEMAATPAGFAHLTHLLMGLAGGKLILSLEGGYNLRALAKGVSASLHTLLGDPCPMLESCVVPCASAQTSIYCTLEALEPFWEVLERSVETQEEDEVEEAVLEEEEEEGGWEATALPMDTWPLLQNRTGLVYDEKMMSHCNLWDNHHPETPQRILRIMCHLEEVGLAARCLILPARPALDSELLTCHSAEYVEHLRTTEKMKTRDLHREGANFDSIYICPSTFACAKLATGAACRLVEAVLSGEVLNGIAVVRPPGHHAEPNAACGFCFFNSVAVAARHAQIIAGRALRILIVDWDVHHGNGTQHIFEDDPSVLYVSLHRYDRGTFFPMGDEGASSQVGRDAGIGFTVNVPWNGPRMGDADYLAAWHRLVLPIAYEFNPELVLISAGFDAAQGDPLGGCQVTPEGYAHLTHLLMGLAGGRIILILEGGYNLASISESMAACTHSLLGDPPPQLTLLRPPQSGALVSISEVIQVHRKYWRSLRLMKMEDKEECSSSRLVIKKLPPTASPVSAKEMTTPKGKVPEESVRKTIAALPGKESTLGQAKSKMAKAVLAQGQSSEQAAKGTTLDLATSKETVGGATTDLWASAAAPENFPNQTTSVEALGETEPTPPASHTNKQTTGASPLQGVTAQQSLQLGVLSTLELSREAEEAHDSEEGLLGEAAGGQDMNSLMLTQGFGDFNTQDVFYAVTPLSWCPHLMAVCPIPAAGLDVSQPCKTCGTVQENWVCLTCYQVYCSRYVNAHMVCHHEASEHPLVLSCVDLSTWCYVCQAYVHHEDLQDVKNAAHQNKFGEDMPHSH
Protocol: HEK293 cells were transfected with the plasmids and were treated with vehicle or ACY775. Subsequently Flag immunoprecipitation was used to pull down LepRb followed by Ac^Lys or Flag immunoblotting.
To test whether HDAC6 can deacetylate LepRb, HEK293 cells were transfected with plasmids (LepRb-Flag, HA-p300 and HDAC6-myc). LepRb was immunoprecipitated by Flag antibodies, which was followed by acetyl-lysine (Ac^Lys) or immunoblottings.
Next, cells were transfected with plasmids (LepRb-Flag, HA-p300 and HDAC6-myc) and subsequently treated with ACY775 ([…]) for 0.5, 1, 2 and 3 h. […] Next, to investigate whether HDAC6 has any effect on LepRb tyrosine phosphorylation, which is indicative of LepRb activation, HEK 293 cells were transfected with LepRb and HDAC6-Myc plasmids in the indicated order and the cells stimulated with leptin (200 ng/ml) for 10 and 60 minutes. The Flag immunoprecipitates were exposed to phospho-tyrosine (p^Tyr) immunoblotting.

[3] = system: HDAC6 in AgRP neurons; assay: DIO mice with HDAC6 deleted in AgRP neurons (HDAC6^Agrp-Δ); format: in vivo
Protocol: Design, validation, and stereotaxic injection of AAV viral vector carrying the guide RNAs targeting the mouse HDAC6 genomic locus. Three designed sgRNAs were concatenated and constructed into an AAV vector carrying a cre-enabled mCherry fluorescent marker.
Following the bilateral injection of AAV-sgHDAC6 into the arcuate nucleus of Agrp-ires-cre::LSL-Cas9-GFP (Agrp-Cre^+/−::Cas9^+/−) or control LSL-Cas9-GFP (Cas9^+/−) mice, immunostaining to detect the expression of mCherry and GFP was performed. AAV-sg-HDAC6 injected Agrp-Cre^+/−::Cas9^+/− (HDAC6^Agrp-Δ) and Cas9^+/− (HDAC6^WT) DIO mice (n=7 for each group) were fasted for 24 hours, and injected with ACY775 (10 mg/kg. i.p). Hourly total dark cycle food intake (g) (n=7 for each group) of these mice after ACY775 injection was measured. Body weight of AAV-sg-HDAC6 injected HDAC6^Agrp-Δ (n=11) and HDAC6^WT (n=6) mice were measured during 3 weeks of ACY775 (10 mg/kg/day, i.p.) treatment. Daily average food intake of HDAC6^Agro-Δ (n=11) and HDAC6^WT (n=6) mice was measured during 3 weeks of ACY775 (10 mg/kg/day, i.p.) treatment. 24-hour food intake average of HDAC Agrp- and HDAC6^WT mice during the 3 weeks of ACY775 treatment was assessed. Serum leptin level (ng/ml) of HDAC6^Agrp-Δ and HDAC6^WT mice after 2 weeks of ACY775 treatment (n=13 for HDAC6^WT and n=18 for HDAC6^Agrp-Δ) was measured. Lean mass (g); fat mass; and fat percentage (%) of HDAC Agrp- and HDAC6^WT DIO mice after 3 weeks of ACY775 treatment was measured by DEXA scan. The HDAC6 inhibitor responsive neurons in the dorsomedial hypothalamus (DMH) were assessed. Immunostaining and quantification of c-Fos expression was performed in the DMH of DIO mice following one-time ACY775 treatment (10 mg/kg, i.p.).

[4] = Brain/plasma ratio, brain and hypothalamus penetrance; format: in vivo; details: in words

Chain of LepRb-HDAC6 interaction (Q9Z2V5 whole entry): as above

SMILES	HDAC6 interaction with LepRb [1]	deacetylation of LepRb [2]	suppression of food intake after a single dose in HDAC6^Agrp-Δ DIO mice ([3]; ACY775 10 mg/kg i.p., fasted)	anti-obesity effects in HDAC6^Agrp-Δ vs HDAC6^WT DIO mice ([3]; chronic treatment)	penetrance into the hypothalamus [4]
O=C(NO)c1cnc(NC2(c3cccc(F)c3)CCCCC2)nc1 [ACY775, 2-[[1-(3-fluorophenyl)cyclohexyl]amino]-N-hydroxy-5-pyrimidinecarboxamide]	blocks this interaction	completely block deactylation of LepRb	almost complete resistance to ACY755-induced suppression of food intake	Significantly attenuated effects of ACY775 on all the parameters	
O=C(CCCCCCNC(=O)c1cnc(N(c2ccccc2)c2ccccc2)nc1)NO [Ricolinostat]					neither of which have high penetrance into the hypothalamus
